From patent publication US9453023B2, “Substituted phenyl cycloalkyl pyrrolidine (piperidine) spirolactams and amides, preparation and therapeutic use thereof” (SANOFI, priority 2010, dated 2016)
Structures can show the parent of a compound that is named as a salt.

These compounds were tested against rhesus (Macacca Mulatta) H3 receptor (Macaca mulatta, UniProt Q865E1) (assay: Rhesus H3 radioligand binding assay ([3H]-Methylhistamine, WGA SPA)). Conditions: displacement of [3H]-Methylhistamine (2 nM) from rhesus H3 receptor membranes; Cheng-Prusoff.
Chain of rhesus (Macacca Mulatta) H3 receptor (Q865E1 1-445): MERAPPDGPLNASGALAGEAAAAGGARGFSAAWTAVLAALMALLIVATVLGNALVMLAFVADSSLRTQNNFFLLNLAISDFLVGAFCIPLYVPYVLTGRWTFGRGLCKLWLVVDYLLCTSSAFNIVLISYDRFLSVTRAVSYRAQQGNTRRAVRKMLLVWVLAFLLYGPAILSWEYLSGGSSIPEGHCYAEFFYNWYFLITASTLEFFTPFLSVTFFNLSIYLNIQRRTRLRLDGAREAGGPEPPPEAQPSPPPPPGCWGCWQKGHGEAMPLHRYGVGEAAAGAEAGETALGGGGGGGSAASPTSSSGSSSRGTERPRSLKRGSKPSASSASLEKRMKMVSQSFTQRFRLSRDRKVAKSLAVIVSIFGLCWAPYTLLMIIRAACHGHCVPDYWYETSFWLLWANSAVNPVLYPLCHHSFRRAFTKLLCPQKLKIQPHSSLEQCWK
Set-up: species or system rhesus monkey (Macacca Mulatta)
Experimental: (Genbank #AY231164). Stably transfected cultures were amplified in tissue culture flasks by standard tissue culture methods and induced to express rhesus H3 by exposure to 500 ng/ml tetracycline (Cellgro) for 24 hours. After induction, cells were dissociated from flasks utilizing Cell Stripper (Cellgro). Cells were centrifuged (1K×g, 5 min) and pellet frozen in an ethanol-dry ice bath to disrupt cell membranes. Frozen cell pellet was re-suspended in 5 mM HEPES (pH 7.4, Invitrogen) at 10 ml/1000 cm2 of harvested cells. The cell suspension was drawn through an 18 gauge needle (2-3×) followed by a 23 gauge needle (2-3×) to further disrupt cell membranes. The cell suspension was centrifuged (40K×g, 30 min). Cell membrane pellet was re-suspended in 5 mM HEPES (pH 7.4, Invitrogen) at a final protein concentration of 10 mg/ml. Rhesus H3 membranes were stored under liquid nitrogen prior to use in [3H]-Methylhistamine and GTPγS radioligand binding assays.
Rhesus H3 radioligand binding assay was performed using rhesus H3 receptor membranes (prepared as described above), [3H]-Methylhistamine (Perkin Elmer) and WGA SPA beads (wheat germ agglutinin scintillation proximity assay) beads (Amersham). The assay was performed in 96-well Opti-Plates (Packard). Each reaction contained 50 μl rhesus H3 membranes (20-30 μg total protein), 50 μl WGA SPA beads (0.1 μg) and 50 μl of 83 Ci/mmol [^3H]-Methylhistamine (final concentration 2 nM) and 50 μl of tested compound. The compounds of this invention and/or vehicle were diluted with binding buffer from 10 mM DMSO stocks. Assay plates were sealed with TopSeal (Perkin Elmer) and mixed on shaker (25° C., 1 hour). Assay plates were read on TopCount scintillation counter (Packard). Results were analyzed by Hill transformation and Ki values were determined by Cheng-Prusoff equation.
Work on `C[C@@H]1CCCN1[C@H]1CC[C@H](c2ccc(N3CCC4(CCNCC4)C3=O)c(F)c2)CC1` [Example 18, 2-{2-Fluoro-4-[4-((R)-2-methyl-pyrrolidin-1-yl)-cyclohexyl]-phenyl}-2,8-diaza-spiro[4.5]decan-1-one hydrochloride] yielded a Ki of 11.3 nM. Compound `C[C@H]1CCCN1C1CC[C@H](c2ccc(NC(=O)Cc3ccccc3)cc2)C1` (stereo partly drawn) [Example 37, N-{4-[(S)-3-((S)-2-Methyl-pyrrolidin-1-yl)-cyclopentyl]-phenyl}-2-phenyl-acetamide] has a Ki of 71.4 nM. `Cc1ccc(C(=O)Nc2ccc([C@H]3CCC(N4CCC[C@@H]4C)C3)cc2)cc1` (stereo partly drawn) [Example 34, 4-Methyl-N-{4-[(S)-3-((S)-2-methyl-pyrrolidin-1-yl)-cyclopentyl]-phenyl}-benzamide] was tested, and the Ki was 98.7 nM. In the case of `Cc1ccc(F)cc1C(=O)Nc1ccc([C@H]2CCC(N3CCC[C@@H]3C)C2)cc1` (stereo partly drawn) [Example 25, 5-Fluoro-2-methyl-N-{4-[(S)-3-((S)-2-methyl-pyrrolidin-1-yl)-cyclopentyl]-phenyl}-benzamide], the Ki is reported as 45.7 nM. `O=C1N(c2ccc([C@H]3CC[C@H](N4CCC4)CC3)cc2F)CCC12CCNCC2` [Example 19, 2-[4-(4-Azetidin-1-yl-cyclohexyl)-2-fluoro-phenyl]-2,8-diaza-spiro[4.5]decan-1-one hydrochloride] showed a Ki of 82.2 nM. With `Cc1noc(C)c1C(=O)Nc1ccc([C@H]2CCC(N3CCC[C@@H]3C)C2)cc1` (stereo partly drawn) [Example 26, 3,5-Dimethyl-isoxazole-4-carboxylic acid {4-[(S)-3-((S)-2-methyl-pyrrolidin-1-yl)-cyclopentyl]-phenyl}-amide] the Ki was 6.01 nM. Work on `CC1CCCN1C1CC[C@H](c2ccc(N3CCC4(CCN(C(=O)OC(C)(C)C)CC4)C3=O)cc2)C1` (stereo partly drawn) [Example 6, 2-{4-[3-(2-Methyl-pyrrolidin-1-yl)-cyclopentyl]-phenyl}-1-oxo-2,8-diaza-spiro[4.5]decane-8-carboxylic acid tert-butyl ester] yielded a Ki of 26.8 nM. `C[C@H]1CCCN1C1CC[C@H](c2ccc(NS(=O)(=O)C3CC3)cc2)C1` (stereo partly drawn) [Example 27, Cyclopropanesulfonic acid {4-[(S)-3-((S)-2-methyl-pyrrolidin-1-yl)-cyclopentyl]-phenyl}-amide] showed a Ki of 34 nM. For `C[C@H]1CCCCN1[C@H]1CC[C@H](c2ccc(N3CCC4(CCOCC4)C3=O)cc2)CC1` [Example 11, 2-{4-[4-((S)-2-Methyl-piperidin-1-yl)-cyclohexyl]-phenyl}-8-oxa-2-aza-spiro[4.5]decan-1-one], the Ki was 39.4 nM.
